According to patent publication US20180282279A1, “Pantothenamide Analogues” (Radboud Universitair Medisch Centrum, priority 2014, published 2018):
Converted amounts (≈) assume the structure as drawn. Where two headings read alike, the source gives them in different places.

Assays:
Streptococcus pyogenes = experiment: Bacterial growth assay and MIC determination, S. pyogenes; assay type: cell-based; conditions: Streptococcus pyogenes; S. pyogenes, serum −; read-out: MIC
Experimental: (§1) Strains of Escherichia coli, Staphylococcus aureus and Staphylococcus epidermidis, were grown overnight in 1% Bacto tryptone medium (BD, Sparks, Md.). Streptococcus pyogenes was grown overnight in Bacto Todd Hewitt Broth medium (BD, Sparks, Md.). Cultures were then diluted 1:1,000 in fresh assay medium supplemented with or without 20% fetal bovine serum (FBS; HyClone, Celbio, Logan, Utah) and added to 96-well sterile enzyme-linked immunosorbent assay (ELISA) plates (100 μl per well). The compounds to be tested were diluted in the medium without serum and added to the bacteria (100 μl per well). Plates were incubated at 37° C., and bacterial growth was monitored over time by reading the optical density at 490 nm using a microplate reader (model 450; Bio-Rad Laboratories Inc., Hercules, Calif.). Streptococcus pneumoniae strains were grown to mid-log phase (OD620 of 0.3) and stored in 15% glycerol at […] till further use. Minimal inhibitory concentration (MIC) of antibiotics was determined according to standard procedures. Bacteria were diluted 10-fold in Mueller-Hinton medium (BD, Sparks, Md.) and added to 96-well sterile ELISA plates (150 μl per well). The compounds to be tested were diluted in the medium without serum and added to the bacteria (150 μl per well). Plates were incubated overnight at 37° C. in 5% CO2. The MIC was defined as the lowest concentration of compound at which no growth was visible with the naked eye.

[1] = tested on: Staphylococcus epidermidis; experiment: Bacterial growth assay and MIC determination, S. epidermidis; assay type: cell-based; conditions: Staphylococcus epidermidis
Experimental: as §1

Staphylococcus aureus = experiment: Bacterial growth assay and MIC determination, S. aureus; assay type: cell-based; conditions: Staphylococcus aureus
Experimental: as §1

[2] = tested on: Plasmodium berghei strain 676c11 (PbGFP-Luc); experiment: In vivo rodent malaria model; conditions: female Wistar rats, 100 mg/kg orally three times a day, day 5-8
Text: Female mice (C57 Black 6, 9-10 weeks of age at the start of the experiment) and female rats (Wistar, 150-200 grams at the beginning of the experiment) were housed under standard conditions and experiments were approved by the institutional ethical committee on animal care and experimentation of Radboud University Medical Centre (Nijmegen).
To test our compounds in an in vivo malaria model we used a well described rodent malaria model (Zuckerman and Yoeli, J Infect Dis. 94, 225-36). First, donor mice were infected by 0.2 ml cryopreserved infected blood stocks containing the transgenic Plasmodium berghei strain 676c11 (PbGFP-Luc). After four days the mice were sacrificed and their blood was collected. The parasitemia in the blood from the mice was calculated as percentage of infected red blood cells (RBC) by Giemsa-stained blood smears. Infected blood was diluted to 5×10^7 parasites per ml and 0.2 ml was i.p. injected in rats (inoculation of 10′ parasites per rat). Treatment with chloroquine (6 mg/kg), CXP18.6-017 (100 mg/kg) and CXP18.6-052 (100 mg/kg) started 5 days post inoculation and where given orally three times a day until day eight. From day 5 blood samples were collected and parasitemia was determined by analysis of Giemsa-stained blood smears. The infection and treatment regimes were well tolerated by the animals.

[3] = tested on: transgenic P. falciparum NF54 strain that expresses a luciferase reporter gene, in Anopheles stephensi mosquitoes; experiment: Standard Membrane Feeding Assay (SMFA), luciferase reporter; assay type: in vivo, Plasmodium falciparum; conditions: for IC50: indirect mode of the SMFA
Experimental: To assess the effect of a reduction in gametocyte viability and or capacity to form a gamete on actual transmission of the parasites, Standard Membrane Feeding Assays (SMFA) were performed using a transgenic P. falciparum NF54 strain that expresses a luciferase reporter gene from a hsp70 promoter. Parasite cultures showing ˜3% mature gametocytes were checked for the ability to show exflagellation after addition of xanthurenic acid to a final concentration of 40 μM. Infectivity of cultures showing positive exflagellation was tested in a ‘prefeed’ experiment as described previously (Antimicrob Agents Chemother, 2012. 56(7): p. 3544-8). Cultures showing development of retorts and ookinetes in the mosquito midgut were selected for testing of compounds. In the indirect mode of the assay, gametocytes were pre-incubated with compound prior to mosquito feeding. To this end, 40 μl compound diluted in parasite culture medium was added to 360 μl of parasite culture and incubated for 24 hrs at 37° C. in Eppendorf tubes (0.1% DMSO final concentration). Hereafter, 300 μl was added to 180 μl of packed red blood cells and centrifuged for 20 seconds at 10,000 g. After carefully aspirating the supernatant, 200 μl of human serum type A was added to the pellet. Finally, 300 μl was immediately injected into an individual membrane-covered minifeeder, where 50 Anopheles stephensi mosquitoes of 1-to-5-days old were allowed to feed for 10 minutes and non-fed mosquitoes were removed from the cage. Eight days after feeding, 20 mosquitoes were sacrificed and parasite luciferase activity was measured as described previously (Stone, J Infect Dis. 2014 in press). For the direct SMFA, 300 μl parasite culture was added to 180 μl red blood cells, centrifuged for 20 seconds at 10,000 g and the supernatant was carefully aspirated. Meanwhile, 10 μl of compound diluted in incomplete medium was added to 490 μl human serum type A (0.1% DMSO final). 200 μl of this compound containing human serum was added to the pellet, which was subsequently used for the SMFA as described above. For dose response analyses, compounds were diluted in DMSO with subsequent dilution in culture medium to a final DMSO concentration of 0.1%. Controls included vehicle (0.1% DMSO) and DHA at its approximate IC90 (10 μM). Data were analyzed by logistic regression using the formula: Y=Bottom+(Top−Bottom)/(1+10̂((Log IC50−X)*HillSlope)) and a least squares method to find the best fit.

Streptococcus pneumoniae = experiment: MIC determination, S. pneumoniae; assay type: cell-based; conditions: Streptococcus pneumoniae; S. pneumoniae, serum −; read-out: MIC
Experimental: Streptococcus pneumoniae strains were grown to mid-log phase (OD620 of 0.3) and stored in 15% glycerol at […] till further use. Minimal inhibitory concentration (MIC) of antibiotics was determined according to standard procedures. Bacteria were diluted 10-fold in Mueller-Hinton medium (BD, Sparks, Md.) and added to 96-well sterile ELISA plates (150 μl per well). The compounds to be tested were diluted in the medium without serum and added to the bacteria (150 μl per well). Plates were incubated overnight at 37° C. in 5% CO2. The MIC was defined as the lowest concentration of compound at which no growth was visible with the naked eye.

[4] = tested on: S. aureus (SA), S. epidermidis (SE), S. pyogenes (SP), S. pneumoniae (SPn); experiment: MIC for most sensitive bacterial species (panel); assay type: cell-based; conditions: Table 1, no species named, read-out: MIC (μg/ml) for most sensitive bacterial species
Experimental: as §1

[5] = Table 1, most sensitive species S. epidermidis (SE), read-out: MIC (μg/ml) for most sensitive bacterial species
[6] = 24 hrs pre-incubation, read-out: IC50 on the average luciferase intensity
[7] = read-out: IC50 on parasite prevalence (percentage of infected mosquitoes)

For CC(C)(CO)[C@@H](O)C(=O)NCCNC(=O)CCc1ccccc1F [CXP18.6-017], the MIC (Streptococcus pyogenes) was 8 µg/mL (≈ 23.5 µM), the MIC ([1]; S. epidermidis, serum −, read-out: MIC) was 32 µg/mL (≈ 94 µM) and the MIC [1, 5] was 2 µg/mL (≈ 5.88 µM). For the same compound, the MIC (Staphylococcus aureus; S. aureus, serum −, read-out: MIC) was 2 µg/mL (≈ 5.88 µM), the MIC (Staphylococcus aureus; Table 1, most sensitive species S. aureus (SA), read-out: MIC (μg/ml) for most sensitive bacterial species) was 2 µg/mL (≈ 5.88 µM) and the parasitemia [2] was “reduced parasitemia with similar kinetics as found for chloroquine”. For the same compound, the “inhibitory effect in the indirect mode compared with the direct mode” value ([3]; gametocytes pre-exposed prior to mosquito feeding) was “stronger”, the “luciferase intensity in the direct mode of the assay” value ([3]; in comparison with the DMSO control) was “reduced luciferase intensity” and the IC50 [3, 6] was 20 nM. The IC50 [3, 7] was 178 nM and the MIC (Streptococcus pneumoniae) was over 32 µg/mL.

For Cc1ccc(CCC(=O)NCCNC(=O)[C@H](O)C(C)(C)CO)cc1 [CXP18.6-026], the MIC ([4]; tested for SA, SE, SP and SPn) was over 32 µg/mL, the IC50 [3, 6] was 107 nM and the IC50 [3, 7] was 370 nM.

Compound CC(C)(CO)[C@@H](O)C(=O)NCCNC(=O)CCc1ccccc1 [CXP18.6-006] has an MIC [1, 5] of 16 µg/mL (≈ 49.6 µM).

CC(C)(CO)[C@@H](O)C(=O)NCCNC(=O)CCc1cccnc1 [CXP18.6-052] was tested, and the MIC ([4]; Streptococcus pneumoniae, marked *: not tested for S. pneumoniae) was over 32 µg/mL and the parasitemia [2] was “significant, albeit partial, reduction of parasitemia”.
